Experiments:
Assay type in all cases: cell-based
PopeOR1 = target: T1, PopeOR1 (Phthorimaea operculella, UniProt A0A8K1YT58); experiment: two-electrode voltage clamp in Xenopus oocytes
T1 construct: full-length ORF, co-expressed with PopeOrco in Xenopus oocytes; with PopeOrco
T1 sequence (A0A8K1YT58 1-435): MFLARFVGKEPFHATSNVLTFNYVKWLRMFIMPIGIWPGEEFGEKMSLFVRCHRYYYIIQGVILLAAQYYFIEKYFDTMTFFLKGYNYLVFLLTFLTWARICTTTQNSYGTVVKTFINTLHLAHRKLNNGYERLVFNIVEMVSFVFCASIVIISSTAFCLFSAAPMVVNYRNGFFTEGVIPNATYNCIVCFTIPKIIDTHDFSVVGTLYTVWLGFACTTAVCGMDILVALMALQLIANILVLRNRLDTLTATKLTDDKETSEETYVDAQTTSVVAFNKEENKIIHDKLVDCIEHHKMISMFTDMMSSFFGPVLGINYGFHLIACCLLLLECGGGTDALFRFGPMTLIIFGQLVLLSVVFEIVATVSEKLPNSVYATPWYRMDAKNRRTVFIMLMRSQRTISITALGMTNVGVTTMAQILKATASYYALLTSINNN
T1 sequence (A0A8K1YT59 1-473 partner): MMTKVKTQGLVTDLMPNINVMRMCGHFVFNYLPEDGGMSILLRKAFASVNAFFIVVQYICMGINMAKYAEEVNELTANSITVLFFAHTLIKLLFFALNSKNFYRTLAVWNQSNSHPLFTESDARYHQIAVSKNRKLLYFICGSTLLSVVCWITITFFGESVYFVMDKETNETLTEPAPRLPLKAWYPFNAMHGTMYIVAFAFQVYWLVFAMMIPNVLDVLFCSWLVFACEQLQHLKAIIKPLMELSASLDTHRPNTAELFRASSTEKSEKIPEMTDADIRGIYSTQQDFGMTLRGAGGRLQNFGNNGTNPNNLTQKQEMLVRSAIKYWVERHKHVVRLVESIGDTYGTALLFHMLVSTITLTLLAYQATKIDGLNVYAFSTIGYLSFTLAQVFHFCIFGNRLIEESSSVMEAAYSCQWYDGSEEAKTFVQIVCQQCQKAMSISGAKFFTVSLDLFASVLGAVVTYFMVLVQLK

PopeOR3 [1] = target: T2, PopeOR3 (Phthorimaea operculella, UniProt A0A8K1YT60); experiment: two-electrode voltage clamp in Xenopus oocytes, weak current at […]
T2 construct: full-length ORF, co-expressed with PopeOrco in Xenopus oocytes; with PopeOrco
T2 sequence (A0A8K1YT60 1-404): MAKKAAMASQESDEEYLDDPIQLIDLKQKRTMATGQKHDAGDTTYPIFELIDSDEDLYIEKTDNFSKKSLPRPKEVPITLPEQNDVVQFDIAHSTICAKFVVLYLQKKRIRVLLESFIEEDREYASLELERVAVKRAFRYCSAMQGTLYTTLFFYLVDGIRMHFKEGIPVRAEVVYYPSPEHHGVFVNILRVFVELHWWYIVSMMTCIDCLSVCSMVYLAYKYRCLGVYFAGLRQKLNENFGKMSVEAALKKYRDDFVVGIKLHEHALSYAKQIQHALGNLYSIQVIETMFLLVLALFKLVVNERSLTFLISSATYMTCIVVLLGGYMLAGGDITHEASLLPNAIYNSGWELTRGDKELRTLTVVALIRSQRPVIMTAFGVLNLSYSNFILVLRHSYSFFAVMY
T2 sequence (A0A8K1YT59 1-473 partner): T1 sequence (A0A8K1YT59 1-473 partner)

PopeOR3 [2] = target: T2, PopeOR3; experiment: two-electrode voltage clamp in Xenopus oocytes

SMILES	EC50 (PopeOR1)	two-electrode voltage clamp in Xenopus oocytes, weak current at 10^-4 M (PopeOR3 [1])	EC50 (PopeOR3 [2])
CCCCC/C=C\C/C=C/CCCOC(C)=O [(E, Z)-4,7–13: OAc, trans-4, cis-7-tridecadienyl acetate]	73 µM	29.41 ± 6.87 nA	–
CC/C=C\C/C=C\C/C=C/CCCOC(C)=O [(E, Z, Z)-4,7,10–13: OAc, tran-4, cis-7, cis-10-tridecatrienyl acetate]	39 µM	–	89 µM
